In publication PMC4110978 (Expert opinion on drug metabolism & toxicology, 2009):

Key:
rat hepatocytes = test: Metabolic clearance in 3D perfused bioreactor; conditions: day 6, two experiments; probe incubated 24 h; disappearance by LC/MS/MS
human hepatocytes = test: Metabolic clearance in 3D perfused bioreactor; conditions: day 4, four experiments; probe incubated 24 h; disappearance by LC/MS/MS

## Cc1ncc2n1-c1ccc(Cl)cc1C(c1ccccc1F)=NC2 [Midazolam]
Rat hepatocytes
  Clearance values, Rat LiverChip: 38 µL per min, per million cells
Human hepatocytes
  Clearance values, Human LiverChip: 13 µL per min, per million cells

## C=CCN1CC[C@]23c4c5ccc(O)c4O[C@H]2C(=O)CC[C@@]3(O)[C@H]1C5 [Naloxone]
Rat hepatocytes
  Clearance values, Rat LiverChip: 39 µL per min, per million cells
Human hepatocytes
  Clearance values, Human LiverChip: 29 µL per min, per million cells
